Measured values from the supplement of paper PMC5579334.

Assays:
[1] = tested on: HS-PSS; assay: relative IC50 (inflection point of fitted dose-response curve, CellTox-Green cytotoxicity, 72 h; top asymptote may be below 50%); higher = less potent
How it was run: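 For 72 h at 37 °C, MPNST cell lines and primary human Schwann cells were exposed in 384-well plates to five 10-fold compound dilutions. CellTox-Green, added before seeding at a final 1:1000 dilution, gave fluorescence from DNA released by disrupted cells. Signals were scaled to vehicle and positive-control wells, cultures failing plate quality control were left out, and four-parameter logistic fits were applied. Relative IC50 and drug sensitivity score were derived from the fits, with IC50 censored at the top concentration.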

[2] = tested on: HS-PSS; assay: relative IC50 (inflection point of fitted dose-response curve, CellTiter-Glo viability, 72 h; top asymptote may be below 50% inhibition); higher = less potent
How it was run: (§1)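 MPNST cell lines and primary human Schwann cells were seeded at 750–1000 cells per well into 384-well plates preprinted with each compound at five concentrations in 10-fold steps, then incubated 72 h at 37 °C, 5% CO2. CellTiter-Glo ATP luminescence gave viability, scaled between vehicle and positive-control wells, with duplicates averaged where present. Curves were fitted with a four-parameter logistic model. Percent inhibition refers to the top concentration, while drug sensitivity score and relative IC50, censored at the top concentration, come from these fits.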

[3] = tested on: HS-Sch-2; assay: as above
How it was run: as §1

[4] = tested on: YST-1; assay: as above
How it was run: as §1

Row | SMILES | relative IC50 [1] | relative IC50 [2] | relative IC50 [3] | relative IC50 [4]
1 | COc1ccc(C[C@H](NC(=O)[C@H](C)NC(=O)CN2CCOCC2)C(=O)N[C@@H](Cc2ccccc2)C(=O)[C@@]2(C)CO2)cc1 [ONX-0914] | 0.307 µM | 0.335 µM | 0.158 µM | 309 nM
2 | Cc1sc2c(c1C)C(c1ccc(Cl)cc1)=N[C@@H](CC(=O)Nc1ccc(O)cc1)c1nnc(C)n1-2 [OTX015] | > 10 µM | 0.321 µM | 0.223 µM | 162 nM
3 | COc1ncc(-c2ccc3nccc(-c4ccnnc4)c3c2)cc1NS(=O)(=O)c1ccc(F)cc1F [Omipalisib] | > 1 µM | 0.0352 µM | 0.0984 µM | 6.88 nM
4 | CC(C)c1cc(C(=O)N2Cc3ccc(CN4CCN(C)CC4)cc3C2)c(O)cc1O [Onalespib] | 0.0627 µM | 0.114 µM | 0.037 µM | 105 nM
5 | COC[C@H](NC(=O)c1cnc(C)s1)C(=O)N[C@@H](COC)C(=O)N[C@@H](Cc1ccccc1)C(=O)[C@@]1(C)CO1 [Oprozomib] | 0.486 µM | 0.148 µM | 0.0167 µM | 72.1 nM
6 | CNC(=O)c1ccc2cc([C@@]3(O)CCn4cncc43)ccc2c1 [Orteronel] | > 10 µM | > 10 µM | > 10 µM | > 10000 nM
7 | O=C(O)C(=O)O.[NH-][C@@H]1CCCC[C@H]1[NH-].[Pt+2] [Oxaliplatin] | 23.2 µM | 7.51 µM | 9.67 µM | 1970 nM
8 | CN1CCN(c2cc(C(=O)Nc3ccc4c(c3)-c3c(c(C(N)=O)nn3-c3ccc(F)cc3)CC4)c(Cl)cn2)CC1 [PHA 408] | 3.27 µM | 2.4 µM | 3.28 µM | 3080 nM
9 | COc1cc(Br)c(Nc2nc(-c3c(C)nc4ncccn34)cs2)c(Br)c1 [PTC-209] | > 10 µM | 1.67 µM | 1.41 µM | 2580 nM
10 | C1=N/C2=N/c3ccc(OCCN4CCCC4)c(c3)COC/C=C/COCc3cccc(c3)C(=C1)N2 [Pacritinib] | 2.78 µM | 1.18 µM | 1.76 µM | 1940 nM
11 | CCCCCCCCCCCCCCCCCCOP(=O)([O-])OC1CC[N+](C)(C)CC1 [Perifosine] | > 2.5 µM | > 2.5 µM | > 2.5 µM | > 2500 nM
12 | CC(C)N(C[C@H]1O[C@@H](n2cnc3c(N)ncnc32)[C@H](O)[C@@H]1O)[C@H]1C[C@@H](CCc2nc3cc(C(C)(C)C)ccc3[nH]2)C1 [Pinometostat] | > 1 µM | > 1 µM | > 1 µM | > 1000 nM
13 | NCCNc1ccc(NCCN)c2c1C(=O)c1ccncc1C2=O [Pixantrone] | > 10 µM | 3 µM | 3.48 µM | 3300 nM
14 | CCCCc1nc2cc(/C=C/C(=O)NO)ccc2n1CCN(CC)CC [Pracinostat] | 1.63 µM | 0.728 µM | 0.429 µM | 121 nM
15 | CCNC(=O)Nc1ccc(-c2nc3c(c(N4CCOC[C@@H]4C)n2)CCN(C2COC2)C3)cc1 [RG-7603] | > 2.5 µM | 0.777 µM | 0.356 µM | 192 nM
16 | Nc1cc(F)ccc1NC(=O)/C=C/c1cnn(C/C=C/c2ccccc2)c1 [RGFP966] | > 10 µM | 0.378 µM | 1.75 µM | 1570 nM
17 | C[C@@H]1C[C@H]2O[C@@H]2/C=C\C=C\C(=O)Cc2c(Cl)c(O)cc(O)c2C(=O)O1 [Radicicol] | 1.14 µM | 0.545 µM | 0.353 µM | 810 nM
18 | CN(C)Cc1ccc(S(=O)(=O)n2ccc(/C=C/C(=O)NO)c2)cc1 [Resminostat] | 3.06 µM | 2.18 µM | 2.17 µM | 578 nM
19 | CN(C)C(=O)c1cc2cnc(Nc3ccc(N4CCNCC4)cn3)nc2n1C1CCCC1 [Ribociclib] | > 10 µM | 2.03 µM | 1.61 µM | 1530 nM
20 | COc1cc(OC)c(/C=C/S(=O)(=O)Cc2ccc(OC)c(NCC(=O)O)c2)c(OC)c1 [Rigosertib] | > 10 µM | 0.13 µM | 0.0922 µM | 59.2 nM
21 | C=CC(=O)Nc1cccc(Nc2nc(Nc3ccc(N4CCN(C(C)=O)CC4)cc3OC)ncc2C(F)(F)F)c1 [Rociletinib] | 2.98 µM | 3.1 µM | 2.82 µM | 1610 nM
22 | C/C=C1\NC(=O)[C@H]2CSSCC/C=C/[C@H](CC(=O)N[C@H](C(C)C)C(=O)N2)OC(=O)[C@H](C(C)C)NC1=O [Romidepsin] | 0.337 µM | 0.3 µM | 0.002 µM | 0.75 nM

Row | SMILES | relative IC50 [1] | relative IC50 [2] | relative IC50 [3] | relative IC50 [4]
23 | COc1ccc(CCc2nc3cc(-c4c(C)noc4C)ccc3n2C[C@H](C)N2CCOCC2)cc1Cl [SGC-CBP30] | > 25 µM | 9.71 µM | 3.85 µM | 3970 nM
24 | CN1CCC(CNc2ccc3ncc(-c4cccc(OC(F)(F)F)c4)n3n2)CC1 [SGI-1776] | 2.51 µM | 2.47 µM | 2.37 µM | 1660 nM
25 | Cn1cc(-c2ccc3nnc(Sc4ccc5ncccc5c4)n3n2)cn1 [SGX-523] | > 5 µM | > 5 µM | > 5 µM | > 5000 nM
26 | CN(CC(=O)N(Cc1ccc(C2CCCCC2)cc1)c1ccc(C(=O)O)cc1)S(=O)(=O)c1c(F)c(F)c(F)c(F)c1F [SH-4-54] | 7.28 µM | 7.51 µM | 5.27 µM | 3260 nM
27 | CC(C)NC(=O)COc1cccc(-c2nc(Nc3ccc4[nH]ncc4c3)c3ccccc3n2)c1 [SLx-2119] | > 5 µM | 1.04 µM | 0.653 µM | 193 nM
28 | CCc1c2c(nc3ccc(O)cc13)-c1cc3c(c(=O)n1C2)COC(=O)[C@]3(O)CC [SN-38] | 0.0297 µM | 0.036 µM | 0.00922 µM | 4.63 nM
29 | O=C(/C=C\n1cnc(-c2cc(C(F)(F)F)cc(C(F)(F)F)c2)n1)NNc1cnccn1 [Selinexor] | 1.46 µM | 0.404 µM | 0.211 µM | 115 nM
30 | O=C(O)c1ccc2c(c1)nc(Nc1cccc(Cl)c1)c1ccncc12 [Silmitasertib] | > 10 µM | 2.58 µM | 3.54 µM | 2360 nM
31 | CC(C)(O)CC(=O)NCCn1ccc2ncnc(Nc3ccc(Oc4cccc(C(F)(F)F)c4)c(Cl)c3)c21 [TAK-285] | > 2.5 µM | > 2.5 µM | > 2.5 µM | > 2500 nM
32 | O=c1sn(-c2cccc3ccccc23)c(=O)n1Cc1ccccc1 [Tideglusib] | > 3 µM | > 3 µM | > 3 µM | > 3000 nM
33 | Cc1cc(Nc2cc(N3CCN(C)CC3)nc(Sc3ccc(NC(=O)C4CC4)cc3)n2)n[nH]1 [Tozasertib] | > 10 µM | 0.315 µM | 0.552 µM | 42.1 nM
34 | NC(=S)N/N=C/c1ncccc1N [Triapine] | 3.26 µM | 2.25 µM | 1.69 µM | 3880 nM
35 | O=C(O)CSc1cc(NS(=O)(=O)c2ccc(Br)cc2)c2ccccc2c1O [UMI-77] | 30.5 µM | 26.9 µM | 5.66 µM | 3040 nM
36 | CCCCNc1ncc(C(=O)NCc2ccc(-n3ccnc3)cc2)c(NC2CCC(O)CC2)n1 (configuration not stated) [UNC2881] | > 2.5 µM | 0.338 µM | > 2.5 µM | 345 nM
37 | CC(C)Nc1cc(-c2c[nH]c(C(=O)N[C@H](CO)c3cccc(Cl)c3)c2)c(Cl)cn1 [Ulixertinib] | > 10 µM | 3.53 µM | 1.29 µM | 1380 nM
38 | Oc1ncc(N(CCCl)CCCl)c(O)n1 [Uramustine] | > 10 µM | > 10 µM | > 10 µM | > 10000 nM
39 | CCCC(CCC)C(=O)O [Valproic acid] | > 1000 µM | > 1000 µM | > 1000 µM | 306000 nM
40 | C[C@@H]1COC(Nc2ccc3ncnc(Nc4ccc(OCc5nccs5)c(Cl)c4)c3c2)=N1 [Varlitinib] | > 10 µM | 0.821 µM | 1.64 µM | 247 nM
41 | CCn1c(=O)c(-c2cc[nH]n2)cc2c(C)nc(N)nc21 [Voxtalisib] | > 10 µM | 2.33 µM | 2.18 µM | 1120 nM
42 | COc1cc2c(Nc3ccc(Cl)c(Cl)c3F)ncnc2cc1OC[C@H]1C[C@@H]2CN(C)C[C@@H]2C1 [XL-647] | > 1 µM | 0.406 µM | 0.367 µM | 101 nM
43 | c1ccc(Cn2c(-c3ccc(OC[C@H](C4CCNCC4)n4c(-c5ccccc5)nc5ccccc54)cc3)nc3ccccc32)cc1 [deltarasin] | 2.47 µM | 2.47 µM | 3.06 µM | 3360 nM
